Data on 1 compound can be found in patent publication US20070123476A1, “Polyene antibiotic for controlling fungal growth in banana crops” (priority 2004, published 2007).

Structures are written as SMILES. ≈ marks a conversion by molar mass, not a printed value.

Data set [1] has as its system most fungi. The conditions noted are these: general background statement; cited from earlier work.
Data set [2] deals with M. fijensis. The data set is described as follows: Minimal inhibitory concentration on agar plates containing natamycin (agar diffusion method). Format: cell-based, Mycosphaerella fijiensis. The settings on record: Pseudocercospora fijiensis; spores grown on agar plates with different natamycin concentrations; no visible growth. As to the method: (§1) The minimal inhibition concentration of these moulds or the minimal effective amount of the antifungal compound was determined using the agar diffusion method, which is well known in the art. Mould spores were grown on agar plates containing different concentrations of natamycin. The concentration of natamycin on which no visible growth could be observed was considered as the minimal inhibitory concentration (MIC) for that particular mould strain.
For orientation: In agar diffusion tests the substance spreads into inoculated agar from a disc or well.

For data set [3] the following is noted: cited from earlier work.
For data set [4], the system named is Fusarium oxysporum f.sp. The data set is described as follows: Minimal inhibitory concentration on agar plates containing natamycin (agar diffusion method). Format: cell-based, Fusarium oxysporum f. sp. cubense. The settings on record: spores grown on agar plates with different natamycin concentrations, no visible growth. How it is done:
as §1

What is called MIC is the lowest concentration that inhibits growth of the organism. A high value points to a need for much substance. For `C[C@@H]1C/C=C/C=C/C=C/C=C/[C@H](O[C@@H]2O[C@H](C)[C@@H](O)[C@H](N)[C@@H]2O)C[C@@H]2O[C@](O)(C[C@@H](O)C[C@H]3O[C@@H]3/C=C/C(=O)O1)C[C@H](O)[C@H]2C(=O)O` [natamycin], the “MIC (Minimal Inhibition Concentration) of most fungi” value in data set [1] is recorded as “less than 20 ppm”. Besides, the minimal inhibitory concentration (MIC) in data set [2] and in data set [4] was 3 to 7 µg/mL (≈ 4.51 to 10.5 µM) in each case. For the same compound, in data set [3], the solubility in water is on record as 30-50 ppm.
